Where two headings read alike, the source gives them in different places. Where only a bound is given, the exact number is not on record here.

The text below walks through data of patent US9321808B2, “Homo- and heterodimeric SMAC mimetic compounds as apoptosis inducers” (BioNTech AG, priority 2012, dated 2016).

The target of one series is T1, cIAP2-BIR3 (Homo sapiens, UniProt Q13489).
T1 construct: 6xHis (C); made in house; host or cells: Escherichia coli BL21(DE3)
Put plainly: Fluorescence polarization binding, cIAP2 BIR3. The procedure:
(§1) The plasmids were used to transform Escherichia coli strain BL21(DE3). The recombinant proteins were purified using Ni-NTA (His-trap FFcrude, Ge-Healthcare), followed by gel filtration (Superdex 200, Ge-Healthcare). The recombinant proteins were eluted in 20 mM Tris pH 8.0, 250 mM NaCl and 10 mM DTT. Aliquoted proteins were conserved at −80° C.
(§2) The fluorescently-labelled Smac peptide (AbuRPF-K(5-Fam)-N1-12, final concentration of 2 nM), and increasing concentrations of cIAP1- and cIAP2-BIR3 from 0 to 20 μM, were added to an assay buffer consisting of 100 mM potassium phosphate, pH 7.5, 100 μg/ml bovine γ-globulin, 0.02% sodium azide. […] All experiments were performed in black, flat-bottom 96-well microplates (Greiner bio-one). 4-substituted azabicyclo[5.3.0]alkane Smac-mimetics were evaluated for their ability to displace the fluorescent probe from recombinant protein. […] After 15 minutes mixing on a shaker, and 3 hours incubation at room temperature, fluorescent polarization was measured on the Ultra plate reader (Tecan).

Series [1] relates to MDA-MB-231 (breast epithelial adenocarcinoma). As to the kind of experiment: Standalone cytotoxicity, MTT assay, MDA-MB-231. Format: cell-based, human. The note with it: reported as activity range, read-out: MDA-MB-231 IC50 (μM ± standard Deviation). The method, then:
(§3) Human cell lines MDA-MB-231 (breast epithelial adenocarcinoma), HL-60 (promieloblast cells) and PC-3 (prostate adenocarcinoma cells) were purchased from Istituto Zooprofilattico di Brescia (www.bs.izs.it). Reagents for cell culture were purchased from Sigma, unless otherwise indicated. Cells were grown on Plastic Petri dishes (Falcon) in RPMI 1640 medium supplemented with 2 mM L-glutamine, Penicillin (100 U/mL)/Streptomicin (100 μg/mL), 10% Fetal Bovine Serum. A sub-cultivation ratio of 1:4 was used. Cells were maintained at 37° C. in an atmosphere of 95% air and 5% CO2.
(§4) Cells were seeded in 96-well flat bottom cell culture plates at a density of 5000 cells/well in 100 μL of culture medium. HL-60 cells were immediately stimulated with the indicated compounds for 96 hours in the incubator. MDA-MB-231 and PC-3 cells were allowed to adhere for 24 hours. prior to be exposed to the compounds for 96 hours in the incubator. Cells were exposed to the following concentrations of the compounds: 50 nM, 100 nM, 200 nM, 500 nM, 1 μM, 5 μM, 10 μM, 50 μM and 100 μM. Each point was done in triplicate. The cellular growth inhibitory effect of our compounds was evaluated using the MTT assay (Sigma). After 96 hours of treatment, 10 μL of MTT reagent solution (5 mg of MTT powder/mL diluted in Phosphate Buffer Salt saline solution) were added in each well and allowed to react for 3 hours in the incubator. After 3 hours cells were solubilized in Lysis Buffer (10% SDS/0.1% HCl in water, 100 μL for each well) for 24 hours at 37° C. Finally, the absorbance was measured at 570 nm using a multiplate reader. Absorbance values were collected and IC50 values were determined using GraphPad Prism5 software. The experiments were repeated twice.
After 96 hours of treatment, 10 μl of MTT reagent solution (5 mg of MTT powder/ml diluted in Phosphate Buffer Salt saline solution) were added in each well and allowed to react for 3 hours in the incubator. After 3 hours cells were solubilized in Lysis Buffer (10% SDS/0.1% HCl in water, 100 μl for each well) for 24 hours at 37° C. Finally, the absorbance was measured at 570 nm using a multiplate reader. Absorbance values were collected and IC50/IC80 values were determined using GraphPad Prism5 software.

Series [2] deals with HL-60 (promieloblast cells). Put plainly: Standalone cytotoxicity, MTT assay, HL-60. Type of series: cell-based, human. Particulars: reported as activity range, read-out: HL-60 IC50 (μM ± standard Deviation). The procedure:
as §3
as §4, with “The experiments were repeated twice.” left out
(§5) After 96 hours of treatment, 10 μl of MTT reagent solution (5 mg of MTT powder/ml diluted in Phosphate Buffer Salt saline solution) were added in each well and allowed to react for 3 hours in the incubator. […] Finally, the absorbance was measured at 570 nm using a multiplate reader. Absorbance values were collected and IC50/IC80 values were determined using GraphPad Prism5 software.
In general terms: Tetrazolium assays rely on reduction of a dye to a coloured formazan, in cell work by metabolically active cells.

The test system of series [3] is PC-3 (prostate adenocarcinoma cells). As to the kind of experiment: Standalone cytotoxicity, MTT assay, PC-3. Particulars: 96 hours treatment, reported as activity range, read-out: PC-3 IC50 (μM ± standard Deviation). Format: cell-based, human. The procedure:
as §3
as §4, with “The experiments were repeated twice.” left out
as §5

Series [4] deals with IGROV-1 human ovarian carcinoma xenografted i.p. As to the kind of experiment: Ovarian tumor i.p. xenograft, survival. Type of series: in vivo, athymic nude mice. Particulars: 5 mg/kg, qdx4-5/wx2-3w, IGROV-1 i.p. The procedure: (§6) All experiments of antitumor activity were carried out using female athymic Swiss nude mice, 8-10 weeks-old (Charles River, Calco, Italy). Mice were maintained in laminar flow rooms keeping temperature and humidity constant. Mice had free access to food and water. Experiments were approved by the Ethics Committee for Animal Experimentation of the Istituto Nazionale Tumori of Milan according to institutional guidelines.
(§7) Chem. Soc. […] The drugs were delivered i.p. in a volume of 10 ml/Kg of body weight.
The IGROV-1 tumor was adapted to grow in the peritoneal cavity (i.p.) and maintained by serial i.p. passages of ascitic cells into healthy mice. In this tumor model, hemorrhagic ascites with diffuse peritoneal carcinomatosis develops and the animal eventually die. For evaluation of antitumor activity, 2.5×10^6 ascitic cells in 0.2 ml of saline were injected i.p. into mice. Locoregional administration was employed. […] For antitumor activity studies, experimental groups were inspected daily and weighed three times weekly. Prior to impending death, mice were sacrificed by cervical dislocation and day of sacrifice was considered as day of death and the median survival time (MST) was calculated for each group. Antitumor activity was assessed as T/C %, i.e., the ratio of MST in treated mice over that of control mice×100. For statistical analysis, percent survivorship over time was estimated by the Kaplan-Meier product method and compared using the log-rank test.
Treatment started the day after tumor cell inoculation.

The test system of series [5] is IGROV-1 human ovarian carcinoma xenografted s.c. Particulars: for TVI %, tumor volume inhibition % in treated over control mice: assessed 7 days after last treatment. The procedure:
as §6, §7
For subcutaneous (s.c.) growth, exponentially growing tumor cells (5×10^6 cells/mouse) were s.c. injected into the right flank of athymic nude mice. The tumor line was achieved by serial s.c. passages of fragments (about 2×2×6 mm) from regrowing tumors into healthy mice. Groups of five mice bearing bilateral s.c. tumors were employed. Tumor fragments were implanted on day 0 and tumor growth was followed by biweekly measurements of tumor diameters with a Vernier caliper. […] Treatment started three days after tumor implant, when tumors were just palpable. […] The toxicity of the drug treatment was determined as body weight loss and lethal toxicity. Deaths occurring in treated mice before the death of the first control mouse were ascribed to toxic effects. Student t test (two tailed) exact test was used for statistical comparison of tumor volumes in mice.

Another series deals with T2, cIAP1-BIR3 (Homo sapiens, UniProt Q13490).
T2 construct: 6xHis (C); made in house; host or cells: Escherichia coli BL21(DE3)
T2 sequence (Q13490 251-363): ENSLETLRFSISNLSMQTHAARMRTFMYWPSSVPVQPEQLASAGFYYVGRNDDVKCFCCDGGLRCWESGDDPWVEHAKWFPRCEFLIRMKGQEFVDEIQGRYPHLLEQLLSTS
Put plainly: Fluorescence polarization binding, cIAP1 BIR3. The note with it: displacement of fluorescent probe (2 nM) from cIAP1-BIR3 (10 nM); average of three independent measurements; read-out: cIAP1 IC50(av). The method, then: as §1, §2
For orientation: Fluorescence polarisation rises when a labelled molecule tumbles more slowly, as on binding a larger partner.

The mark [6] stands for this setting: Homo sapiens, MDA-MB-231, 96 hours treatment.
Setting [7] is: Homo sapiens, HL-60, 96 hours treatment.
Setting [8] is: i.p., 5 mg/kg, qdx4-5/wx3w, IGROV-1 s.c.
Setting [9] is: displacement of fluorescent probe (2 nM) from cIAP2 (25 nM), average of three independent measurements, read-out: cIAP2 IC50(av).

T1 sequence (Q13489 237-349): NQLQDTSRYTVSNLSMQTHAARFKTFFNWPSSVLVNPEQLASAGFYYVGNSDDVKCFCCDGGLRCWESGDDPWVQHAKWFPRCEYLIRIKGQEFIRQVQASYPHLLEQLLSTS

A word on the IC50: it is the concentration that gives 50% inhibition. For `CC[C@H](NC)C(=O)N[C@@H]1C(=O)N2[C@@H](CC[C@@H]1CO)CC[C@H]2C(=O)N[C@@H](c1ccccc1)c1cn(CCCCc2ccc(CCCCn3cc([C@@H](NC(=O)[C@@H]4CC[C@@H]5CC[C@H](CO)[C@H](NC(=O)[C@H](CC)NC)C(=O)N54)c4ccccc4)nn3)cc2)nn1` [Compound 28a], the IC50 at cIAP2-BIR3 was 2.5 nM; in series [1] (setting [6]), less than 1 µM; in series [2] (setting [7]) it was less than 1 µM; in series [3] (Homo sapiens) it was more than 50 µM. Further, the “MST, median survival time” value in series [4] was 36 days. Moreover, the “Range of the days of death” value in series [4] lay in the range of 28 to 56 days. For the same compound, in series [5] (i.p., 5 mg/Kg, qdx5/wx3), the Tolerability entry is recorded as “well tolerated”. Also, the “Tox, dead/treated mice” value in series [5] (i.p., 5 mg/kg, qdx4-5/wx3w) is 0/4. Further, the “TVI %, tumor volume inhibition % in treated over control mice” value in series [5] (setting [8]) is reported as 66%. For the same compound, the “BWL %, body weight loss % induced by treatment” value in series [5] (i.p., 5 mg/kg, qdx4-5/wx3w, the highest change is reported) worked out at 2%.
Take `CC[C@H](NC)C(=O)N[C@@H]1C(=O)N2[C@@H](CC[C@@H]1CNCc1ccccc1)CC[C@H]2C(=O)N[C@@H](c1ccccc1)c1cn(CCCCc2ccc(CCCCn3cc([C@@H](NC(=O)[C@@H]4CC[C@@H]5CC[C@H](CNCc6ccccc6)[C@H](NC(=O)[C@H](CC)NC)C(=O)N54)c4ccccc4)nn3)cc2)nn1` [Compound 29a]: the figures for the IC50 (on cIAP2-BIR3; in series [1] (setting [6])) were 12.1 nM and less than 1 µM, respectively.
Turning to `CC[C@H](NC)C(=O)N[C@@H]1C(=O)N2[C@@H](CC[C@@H]1CO)CC[C@H]2C(=O)N[C@H](C(=O)NCCCCCCCCNC(=O)[C@@H](NC(=O)[C@@H]1CC[C@@H]2CC[C@H](CO)[C@H](NC(=O)[C@H](CC)NC)C(=O)N21)c1ccccc1)c1ccccc1` [Compound 30a], the IC50 on cIAP2-BIR3 was 1.8 nM; in series [1] (setting [6]) it was less than 1 µM.
On to `CC[C@H](NC)C(=O)N[C@@H]1C(=O)N2[C@@H](CC[C@@H]1CO)CC[C@H]2C(=O)N[C@H](C(=O)NCCNC(=O)CCC#CC#CCCC(=O)NCCNC(=O)[C@@H](NC(=O)[C@@H]1CC[C@@H]2CC[C@H](CO)[C@H](NC(=O)[C@H](CC)NC)C(=O)N21)c1ccccc1)c1ccccc1` [Compound 30c], for which the IC50 in series [1] (setting [6]) was in the range of 10 to 50 µM.
On to `CC[C@H](NC)C(=O)N[C@@H]1C(=O)N2[C@@H](CC[C@@H]1CO)CC[C@H]2C(=O)N[C@H](C(=O)NCCCOCCOCCOCCCNC(=O)[C@@H](NC(=O)[C@@H]1CC[C@@H]2CC[C@H](CO)[C@H](NC(=O)[C@H](CC)NC)C(=O)N21)c1ccccc1)c1ccccc1` [Compound 30d], for which the IC50 on cIAP2-BIR3 (setting [9]) was 2.2 nM; in series [1] (setting [6]) it was 10 to 50 µM; in series [2] (setting [7]), 10 to 50 µM; in series [3] (Homo sapiens) it was more than 50 µM.
Turning to `CC[C@H](NC)C(=O)N[C@@H]1C(=O)N2[C@@H](CC[C@@H]1Cn1cc(CCC(=O)NCCOCCOCCOCCNC(=O)[C@@H](NC(=O)[C@@H]3CC[C@@H]4CC[C@H](CO)[C@H](NC(=O)[C@H](CC)NC)C(=O)N43)c3ccccc3)nn1)CC[C@H]2C(=O)NC(c1ccccc1)c1ccccc1` [Compound 35a], the IC50 on cIAP2-BIR3 was 0.4 nM; in series [1] (setting [6]), 1 to 10 µM.
Turning to `CC[C@H](NC)C(=O)N[C@@H]1C(=O)N2[C@@H](CC[C@@H]1CNC(=O)COCC(=O)NCCOCCOCCOCCNC(=O)[C@@H](NC(=O)[C@@H]1CC[C@@H]3CC[C@H](CO)[C@H](NC(=O)[C@H](CC)NC)C(=O)N31)c1ccccc1)CC[C@H]2C(=O)NC(c1ccccc1)c1ccccc1` [Compound 36a], the IC50 was 0.2 nM at cIAP2-BIR3 (setting [9]) and 1 to 10 µM in series [1] (setting [6]).
As for `CN[C@@H](C)C(=O)N[C@H]1CCCC[C@H]2CC[C@@H](C(=O)N[C@@H](c3ccccc3)c3cn(CCCCc4ccc(CCCCn5cc([C@@H](NC(=O)[C@@H]6CC[C@@H]7CCCC[C@H](NC(=O)[C@H](C)NC)C(=O)N76)c6ccccc6)nn5)cc4)nn3)N2C1=O` [SM164, reference compound], the IC50 on cIAP1-BIR3 was 0.46 nM; in series [1] (96 hours treatment) it was less than 1 µM; in series [2] (96 hours treatment), less than 1 µM; in series [3], 10 to 50 µM. Further, the “MST, median survival time” value in series [4] came out at 37 days. For the same compound, the “Range of the days of death” value in series [4] was 24 to 49 days. For the same compound, in series [5] (setting [8]), the “TVI %, tumor volume inhibition % in treated over control mice” value is recorded as 0%. In addition, the “BWL %, body weight loss % induced by treatment” value in series [5] (mouse, in vivo, ip, 5 mg/kg) is listed as 5%.
Consider `CN[C@@H](C)C(=O)N[C@H]1CCCC[C@H]2CC[C@@H](C(=O)N[C@@H](c3ccccc3)c3cn(CCCCc4ccc(CCCCn5cc([C@@H](NC(=O)[C@@H]6CC[C@@H]7CCCC[C@H](NC(=O)[C@H](C)NC)C(=O)N76)c6ccccc6)nn5)cc4)nn3)N2C1=O` [SM-164, reference compound], for which the Antitumor effect result in series [5] (i.p., 5 mg/Kg, qdx5/wx3, IGROV-1 s.c.) was “did not display any antitumor effect”.
